Molecular target: T1, PPARγ (Homo sapiens, UniProt P37231)
T1 sequence (P37231 1-505): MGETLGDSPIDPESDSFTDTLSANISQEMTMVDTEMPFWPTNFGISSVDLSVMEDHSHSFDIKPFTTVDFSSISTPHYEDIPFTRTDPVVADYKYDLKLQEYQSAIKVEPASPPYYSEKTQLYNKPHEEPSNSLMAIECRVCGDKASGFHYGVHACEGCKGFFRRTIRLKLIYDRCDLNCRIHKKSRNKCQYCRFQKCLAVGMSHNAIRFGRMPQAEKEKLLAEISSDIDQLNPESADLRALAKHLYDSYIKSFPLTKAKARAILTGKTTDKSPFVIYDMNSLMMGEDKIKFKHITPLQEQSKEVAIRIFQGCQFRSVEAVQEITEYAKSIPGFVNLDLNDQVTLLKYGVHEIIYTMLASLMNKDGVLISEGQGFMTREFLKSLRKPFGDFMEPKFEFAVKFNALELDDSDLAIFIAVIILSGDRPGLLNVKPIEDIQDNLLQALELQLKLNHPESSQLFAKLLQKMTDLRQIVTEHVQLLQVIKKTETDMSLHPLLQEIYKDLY
Assay: IAA-competitive labelling of cysteines on PPARγ (LC-MS/MS)
Format: binding
Conditions: 100 µM, 1 h
Source text: Finally, we sought to understand the molecular basis for PPARγ binding by the synthetic analogues of deoxyelephantopin through identification of the precise covalently modified amino acid site. There is literature precedent for oxidized fatty acids containing an α,β-unsaturated ketone to form a covalent bond with a cysteine in the ligand-binding site of PPARγ[53]. More recently, synthetic ligands binding reversibly to a distinct site were identified. […] Bearing in mind that the structurally simplified, and thus less prone to MS/MS fragmentation, probe 23c binds PPARγ as efficiently as 24c (Supplementary Fig. 13), we treated the recombinant nuclear receptor with the former compound, digested the protein and analysed the resulting peptides by LC–MS/MS. […] While zinc fingers respond to oxidative stress through reaction at cysteines[55][56] and have been targeted by small molecules forming disulfide bridges, to the best of our knowledge, deoxyelephantopin is the first example of a small molecule that engages a zinc finger through a Michael addition. The success of Michael acceptors as a cysteine trap in current clinical development of covalent inhibitors points to the privileged reactivity profile of this moiety. Having identified the exact binding site, we then performed covalent docking of 19a using the protein–ligand docking program GOLD. […] Following the docking result, we mutated these two residues, transiently expressed the wild-type and the two PPARγ mutant forms in 293T cells and performed gel-based competitive experiments to determine relative binding affinities for 19a. […] Finally, it is interesting to note that SILAC experiment led to the identification of ZNF346, another zinc finger motif-containing protein. […]
H2O (Buffer A) and 0.1% FA in MeCN (Buffer B). Peptides were eluted into the mass spectrometer at a flow rate of 300 nL/min. over a 240 min. linear gradient (3-35% Buffer B) at 50 °C. Data was acquired in data-dependent mode (top- N = ’ […]
and isotope exclusion was enabled.
MaxQuant analysis. The MS data was analyzed with MaxQuant (V1.5.2.8) and searched against the human proteome (Uniprot, 89,649 entries) and a common list of contaminants (included in MaxQuant). The first peptide search tolerance was set to 20 ppm, 10 ppm was used for the main peptide search and fragment mass tolerance was set to 0.02 Da. The false discovery rate for peptides, proteins and sites identification was set to 1%. The minimum peptide length was set to 6 amino acids and peptide re-quantification, label-free quantification (MaxLFQ) and “ ” were enabled. The minimal number of peptides per protein was set to two. Oxidized methionines and N-terminal acetylation were searched as variable modifications and carbamidomethylation of cysteines was searched as a fixed modification. For SILAC experiments 13C6 L-lysine and 13C6 15N4 L-arginine were set as heavy isotope labels and 12C6 L-lysine and 12C6 14N4 L-arginine as light isotope labels. […]
IAA competition of 23c, 24c and DEP h ARγ. γ
(500 ng in 9 µL PBS) was treated with either 100 µM DEP, 23c, 24c or DMSO (1 µL of 10x stock in DMSO) for one hour. Samples were denatured with 6 M urea in 50 mM NH4HCO3, […]
in the dark. Samples were diluted to 2 M urea with 50 mM NH4HCO3, and digested with trypsin . μ . μ μ 2 for 12 hours at 37 °C. Samples were acidified to a final concentration of 5% acetic acid, desalted over a self-packed C18 spin column and dried. Samples were resuspended in 0.1% FA in water and analyzed by LC-MS/MS (see above). MS data was analyzed in MaxQuant (see above). […]

[1] = peptide NKCQYCR (contains Cys190)

| SMILES | competition of iodoacetamide labelling of the Cys190-containing tryptic peptide [%] | Ratio compound/DMSO (IAA-labelled peptide) (peptide ASGFHYGVHACEGCK) | Ratio compound/DMSO (IAA-labelled peptide) (peptide CLAVGMSHNAIR) | Ratio compound/DMSO (IAA-labelled peptide) (peptide IFQGCQFR) | Ratio compound/DMSO (IAA-labelled peptide) (peptide LKLIYDRCDLNCR) | Ratio compound/DMSO (IAA-labelled peptide) [1] | Ratio compound/DMSO (IAA-labelled peptide) (peptide TQLYNKPHEEPSNSLMAIECR) | Ratio compound/DMSO (IAA-labelled peptide) (peptide VCGDKASGFHYGVHACEGCK) |
| --- | --- | --- | --- | --- | --- | --- | --- | --- |
| C#CCC[C@H](O)[C@H]1C(=C)C(=O)O[C@@H]1c1ccccc1 [23c] | > 75 | 0.79 | 1.14 | 0.63 | 0.83 | 0.25 | 1.52 | 0.68 |
| C#CCC[C@H](OC(=O)C(=C)C)[C@H]1C(=C)C(=O)O[C@@H]1c1ccccc1 [24c] | > 75 | 0.72 | 1.40 | 0.60 | 0.87 | 0.08 | 1.72 | 0.65 |
| C=C(C)C(=O)O[C@H]1CC2=C[C@@H](C/C(C)=C/[C@H]3OC(=O)C(=C)[C@H]13)OC2=O [deoxyelephantopin] | > 75 | 1.05 | 0.94 | 0.73 | 0.96 | 0.00 | 0.94 | 0.81 |

Reference: paper PMC4992173, “Divergent synthesis and identification of the cellular targets of deoxyelephantopins” (Nature Communications, 2016)
